Reference: patent US20180304019A1, “ADMINISTRATION APPARATUS” (DAICEL CORPORATION, priority 2015, published 2018)
Read-outs that look alike come from different tables or passages of the source.

Tested on: intradermal layer, skin tissue of the rabbit in vivo
Conditions: dose 100 μl
Protocol: Moreover, an object of the following experimental conditions is to confirm, when an inflammatory substance is administered to the intradermal layer which is skin tissue of the rabbit in vivo, a presence or absence of an inflammatory response (formation of erythema and eschar, and formation of edema) for each elapsed time (after 24 hours, 48 hours, and 72 hours). In addition, the injection of an injection solution with the needled injector was performed at a constant pressurization rate.
16-week-old male Std: JW/CSK rabbit, already shaved and smooth skin-verified, was used.
An aqueous solution of the following inflammatory substance was used as the dosing liquid and the injection solution.
Inflammatory substance: acetic acid, diluted to a predetermined concentration with distilled water, dose 100 μl
Definitions of numerical values representing the experimental results in the tables with respect to each of erythema and eschar formation and edema formation are as follows.
(Erythema and Eschar Formation)
1 Very slight erythema (barely perceptible erythema)
2 Slight erythema (clearly perceptible erythema)
3 Moderate to severe erythema
4 Severe erythema to eschar formations
1 Very slight edema (barely perceptible edema)
2 Slight edema (edema with edges perceptible due to definite raising)
3 Moderate edema (raised approximately 1 mm)
4 Severe edema (raised 1 mm or more and extending beyond the area of exposure)

[1] = acetic acid 0.25%, Comparative example (needled injector), 24 h
[2] = acetic acid 0.25%, Comparative example (needled injector), 48 h
[3] = acetic acid 0.25%, Comparative example (needled injector), 72 h
[4] = acetic acid 0.25%, Injector 1, 24 h
[5] = acetic acid 0.25%, Injector 1, 48 h
[6] = acetic acid 0.25%, Injector 1, 72 h
[7] = acetic acid 0.5%, Comparative example (needled injector), 24 h
[8] = acetic acid 0.5%, Comparative example (needled injector), 48 h
[9] = acetic acid 0.5%, Comparative example (needled injector), 72 h
[10] = acetic acid 0.5%, Injector 1, 24 h
[11] = acetic acid 0.5%, Injector 1, 48 h
[12] = acetic acid 0.5%, Injector 1, 72 h
[13] = acetic acid 1.0%, Comparative example (needled injector), 24 h
[14] = acetic acid 1.0%, Comparative example (needled injector), 48 h
[15] = acetic acid 1.0%, Comparative example (needled injector), 72 h
[16] = acetic acid 1.0%, Injector 1, 24 h
[17] = acetic acid 1.0%, Injector 1, 48 h
[18] = acetic acid 1.0%, Injector 1, 72 h
[19] = acetic acid 1.5%, Comparative example (needled injector), 24 h
[20] = acetic acid 1.5%, Comparative example (needled injector), 48 h
[21] = acetic acid 1.5%, Comparative example (needled injector), 72 h
[22] = acetic acid 1.5%, Injector 1, 24 h
[23] = acetic acid 1.5%, Injector 1, 48 h
[24] = acetic acid 1.5%, Injector 1, 72 h
[25] = acetic acid 2.0%, Comparative example (needled injector), 24 h
[26] = acetic acid 2.0%, Comparative example (needled injector), 48 h
[27] = acetic acid 2.0%, Comparative example (needled injector), 72 h
[28] = acetic acid 2.0%, Injector 1, 24 h
[29] = acetic acid 2.0%, Injector 1, 48 h
[30] = acetic acid 2.0%, Injector 1, 72 h

CC(=O)O [Acetic acid, acetic acid]
Edema 24 h [1]: 0
Erythema etc. 24 h [1]: 1
Edema 48 h [2]: 0
Erythema etc. 48 h [2]: 1
Edema 72 h [3]: 0
Erythema etc. 72 h [3]: 1
Edema 24 h [4]: 0
Erythema etc. 24 h [4]: 1
Edema 48 h [5]: 0
Erythema etc. 48 h [5]: 1
Edema 72 h [6]: 0
Erythema etc. 72 h [6]: 1
Edema 24 h [7]: 0
Erythema etc. 24 h [7]: 1
Edema 48 h [8]: 0
Erythema etc. 48 h [8]: 1
Edema 72 h [9]: 0
Erythema etc. 72 h [9]: 1
Edema 24 h [10]: 0
Erythema etc. 24 h [10]: 1
Edema 48 h [11]: 0
Erythema etc. 48 h [11]: 1
Edema 72 h [12]: 0
Erythema etc. 72 h [12]: 1
Edema 24 h [13]: 1
Erythema etc. 24 h [13]: 1
Edema 48 h [14]: 1
Erythema etc. 48 h [14]: 1
Edema 72 h [15]: 1
Erythema etc. 72 h [15]: 1
Edema 24 h [16]: 0
Erythema etc. 24 h [16]: 1
Edema 48 h [17]: 0
Erythema etc. 48 h [17]: 1
Edema 72 h [18]: 0
Erythema etc. 72 h [18]: 1
Edema 24 h [19]: 2
Erythema etc. 24 h [19]: 1
Edema 48 h [20]: 2
Erythema etc. 48 h [20]: 1
Edema 72 h [21]: 2
Erythema etc. 72 h [21]: 1
Edema 24 h [22]: 0
Erythema etc. 24 h [22]: 1
Edema 48 h [23]: 0
Erythema etc. 48 h [23]: 1
Edema 72 h [24]: 0
Erythema etc. 72 h [24]: 1
Edema 24 h [25]: 3
Erythema etc. 24 h [25]: 1
Edema 48 h [26]: 3
Erythema etc. 48 h [26]: 1
Edema 72 h [27]: 2
Erythema etc. 72 h [27]: 1
Edema 24 h [28]: 1
Erythema etc. 24 h [28]: 1
Edema 48 h [29]: 1
Erythema etc. 48 h [29]: 1
Edema 72 h [30]: 1
Erythema etc. 72 h [30]: 1
